# Measurements taken from patent US8802664B2 (Bioproject, priority 2010, dated 2014).
# Target: T1, human H4 receptor (Homo sapiens, UniProt Q9H3N8)
# T1 construct: expressed in transfected cells
# Assay: [3H]Histamine binding on membranes of CHO cells stably expressing human H4 receptor
# Method: CHO cells stably expressing human H4 receptor were grown until sub-confluence and centrifuged at 300 g 15 minutes at 4° C. Pellets were resuspended in buffer I Tris-HCl 50 mM, MgCl2 10 mM, NaCl 140 mM, pH=7.4 supplemented by a 1/50 dilution of a mix of protease inhibitors. The obtained suspension is stirred gently and submitted to a […] exerted through a syringe. The cell lysate is then centrifuged at 300 g 15 minutes at 4° C. in order to eliminate nucleus and cell scraps. The obtained supernatant was then centrifuged at 48000 g for 30 minutes at 4° C. The final pellet is resuspended in buffer I with a potter homogenizer. Aliquots were frozen in liquid nitrogen and stored until use at −80° C. Protein content is measured by the Bradford method.
# Defreezed membranes were diluted at a final concentration of 20 μg/180 μL/well in a binding buffer containing 50 mM Tris/HCl, 0.5 mM EDTA, pH=7.4 and distributed in 96 well polystyrene microplate. [^3H] […] Non specific binding was estimated in the presence of 10 μM BP1.2404 (JNJ 7777120). The reaction was terminated by filtration through GF/B filters pre-soaked 2 hours at 4° C. in […]. Filters were rinsed 3 times with 250 μl of ice cold incubation binding buffer.
# The filter-bound radioactivity was measured in a liquid scintillation counter Microbeta TRILUX® with 50 μl of scintillation fluid.
# The hH4 binding investigated by use of [^3H]
row,Structure (SMILES),Ki or IC50 activity class [nM]
1,"Cc1cccc(C(NC2CCN(C)CC2)c2nc3ccccc3s2)c1 (centres unmarked) [Example 21, [(benzothiazol-2-yl)(m-tolyl)methyl](1-methylpiperidin-4-yl)amine]",< 300
2,"C=CCOc1cccc(C(OC2CCN(C)CC2)c2nc3ccccc3s2)c1 (centres unmarked) [Example 22, 2-[(3-allyloxyphenyl)(1-methylpiperidin-4-yloxy)methyl]benzothiazole]",< 30
3,"CN1CCC(OC(c2cccc(OC(F)(F)F)c2)c2nc3ccccc3s2)CC1 (centres unmarked) [Example 23, 2-[(1-methylpiperidin-4-yloxy)(3-trifluoromethoxyphenyl)methyl]benzothiazole]",< 30
4,"CN1CCC(OC(c2ccc(OC(F)(F)F)cc2)c2nc3ccccc3s2)CC1 (centres unmarked) [Example 24, 2-[(1-methylpiperidin-4-yloxy)(4-trifluoromethoxyphenyl)methyl]benzothiazole]",< 1000
5,"COc1cccc(C(NC2CCN(C)CC2)c2nc3ccccc3s2)c1 (centres unmarked) [Example 25, [benzothiazol-2-yl(3-methoxyphenyl)methyl](1-methylpiperidin-4-yl)amine]",< 30
6,"CCCOc1cccc(C(OC2CCN(C)CC2)c2nc3ccccc3s2)c1 (centres unmarked) [Example 26, 2-[(1-methylpiperidin-4-yloxy)(3-propoxy-phenyl)methyl]benzothiazole]",< 30
7,"CN1CCC(OC(c2cccc(Oc3ccccc3)c2)c2nc3ccccc3s2)CC1 (centres unmarked) [Example 28, 2-[(1-methylpiperidin-4-yloxy)(3-phenoxy-phenyl)methyl]benzothiazole]",< 300
8,"Cc1ccc2sc(C(OC3CCN(C)CC3)c3ccccc3)nc2c1 (centres unmarked) [Example 29, 5-methyl-2-[(1-methylpiperidin-4-yloxy)phenylmethyl]benzothiazole]",< 1000
9,"CN1CCC(OC(c2cccc(C(F)(F)F)c2)c2nc3ccccc3s2)CC1 (centres unmarked) [Example 31, 2-[(1-methylpiperidin-4-yloxy)(3-trifluoromethylphenyl)methyl]benzothiazole]",< 30
10,"CN1CCC(OC(c2ccc3c(c2)CCO3)c2nc3ccccc3s2)CC1 (centres unmarked) [Example 32, 2-[(2,3-dihydrobenzofuran-5-yl)(1-methylpiperidin-4-yloxy)methyl]benzothiazole]",< 300
11,"CN1CCC(OC(c2ccccc2)c2nc3cc(F)ccc3s2)CC1 (centres unmarked) [Example 33, 5-fluoro-2-[(1-methylpiperidin-4-yloxy)phenylmethyl]benzothiazole]",< 300
12,"Cc1cc(C(OC2CCN(C)CC2)c2nc3ccccc3s2)ccc1F (centres unmarked) [Example 34, 2-[(4-fluoro-3-methylphenyl)(1-methylpiperidin-4-yloxy)methyl]benzothiazole]",< 300
13,"Cc1cc(C(NC2CCN(C)CC2)c2nc3ccccc3s2)ccc1F (centres unmarked) [Example 35, [benzothiazol-2-yl(4-fluoro-3-methyl-phenyl)methyl](1-methylpiperidin-4-yl)amine]",< 1000
14,"Cc1ccc(C(NC2CCN(C)CC2)c2nc3ccccc3s2)cc1 (centres unmarked) [Example 36, (benzothiazol-2-yl-p-tolylmethyl)(1-methylpiperidin-4-yl)amine]",< 300
15,"CN1CCC(NC(c2cc3ccccc3o2)c2nc3ccccc3s2)CC1 (centres unmarked) [Example 37, [(benzofuran-2-yl)(benzothiazol-2-yl)methyl](1-methylpiperidin-4-yl)amine]",< 1000
16,"Cc1cc(F)cc(C(OC2CCN(C)CC2)c2nc3ccccc3s2)c1 (centres unmarked) [Example 38, 2-[(3-fluoro-5-methylphenyl)(1-methylpiperidin-4-yloxy)methyl]benzothiazole]",< 300
17,"COc1cc(F)cc(C(OC2CCN(C)CC2)c2nc3ccccc3s2)c1 (centres unmarked) [Example 40, 2-[(3-fluoro-5-methoxyphenyl)(1-methylpiperidin-4-yloxy)methyl]benzothiazole]",< 30
18,"CN1CCC(OC(c2cccc(I)c2)c2nc3ccccc3s2)CC1 (centres unmarked) [Example 41, 2-[(3-iodophenyl)(1-methylpiperidin-4-yloxy)methyl]benzothiazole]",< 30
19,"CCCCOc1cccc(C(NC2CCN(C)CC2)c2nc3ccccc3[nH]2)c1 (centres unmarked) [Example 69, [(1H-benzimidazol-2-yl)(3-butoxyphenyl)methyl](1-methylpiperidin-4-yl)amine]",< 30

# Continued, values first:
row,Ki or IC50 activity class [nM],Structure (SMILES)
1,< 300,"COc1cc(F)cc(C(NC2CCN(C)CC2)c2nc3ccccc3s2)c1 (centres unmarked) [Example 43, [benzothiazol-2-yl(3-fluoro-5-methoxyphenyl)methyl](1-methylpiperidin-4-yl)amine]"
2,< 30,"CN1CCC(OC(c2cccc(OCc3ccccc3)c2)c2nc3ccccc3s2)CC1 (centres unmarked) [Example 45, 2-[(3-benzyloxyphenyl)(1-methylpiperidin-4-yloxy)methyl]benzothiazole]"
3,< 300,"CN1CCC(OC(c2ccc3occc3c2)c2nc3ccccc3s2)CC1 (centres unmarked) [Example 46, 2-[benzofuran-5-yl(1-methylpiperidin-4-yloxy)methyl]benzothiazole]"
4,< 30,"CCOc1cccc(C(OC2CCN(C)CC2)c2nc3ccccc3s2)c1 (centres unmarked) [Example 47, 2-[(3-ethoxyphenyl)(1-methylpiperidin-4-yloxy)methyl]benzothiazole]"
5,< 300,"CN1CCC(NC(c2cccc(I)c2)c2nc3ccccc3s2)CC1 (centres unmarked) [Example 48, [benzothiazol-2-yl(3-iodophenyl)methyl](1-methylpiperidin-4-yl)amine]"
6,< 300,"CN1CCC(OC(c2cccc(-c3ccccc3)c2)c2nc3ccccc3s2)CC1 (centres unmarked) [Example 53, 2-[biphenyl-3-yl(1-methylpiperidin-4-yloxy)methyl]benzothiazole]"
7,< 300,CN1CCC(OC(c2cccc(-c3cccc(CO)c3)c2)c2nc3ccccc3s2)CC1 (centres unmarked) [Example 54]
8,< 30,"CC(C)Oc1cccc(C(OC2CCN(C)CC2)c2nc3ccccc3s2)c1 (centres unmarked) [Example 55, 2-[(3-isopropoxyphenyl)(1-methylpiperidin-4-yloxy)methyl]benzothiazole]"
9,< 300,"CN1CCC(OC(c2cccc(-c3cccnc3)c2)c2nc3ccccc3s2)CC1 (centres unmarked) [Example 63, 2-[(1-methylpiperidin-4-yloxy)(3-pyridin-3-ylphenyl)methyl]benzothiazole]"
10,< 1000,"CN1CCC(NC(c2cccc(Br)c2)c2nc3ccccc3[nH]2)CC1 (centres unmarked) [Example 64, [(1H-benzimidazol-2-yl)(3-bromophenyl)methyl](1-methylpiperidin-4-yl)amine]"
11,< 300,"CN1CCC(OC(c2cccc(OS(=O)(=O)C(F)(F)F)c2)c2nc3ccccc3s2)CC1 (centres unmarked) [Example 71, trifluoromethanesulfonic acid 3-[benzothiazol-2-yl(1-methylpiperidin-4-yloxy)methyl]phenyl ester]"
12,< 300,"CN1CCC(NC(c2cccc(F)c2)c2nc3ccccc3[nH]2)CC1 (centres unmarked) [Example 74, [(1H-benzimidazol-2-yl)(3-fluorophenyl)methyl](1-methylpiperidin-4-yl)amine]"
13,< 300,"CCCCCCc1cccc(C(NC2CCN(C)CC2)c2nc3ccccc3[nH]2)c1 (centres unmarked) [Example 76, [(1H-benzimidazol-2-yl)(3-hexylphenyl)methyl](1-methylpiperidin-4-yl)amine]"
